Source: publication PMC4561856, “Atomic basis for therapeutic activation of neuronal potassium channels” (Nature Communications, 2015)
Where a chain is given by its changes, count along the chain named. Like-named read-outs stand apart in the source and are kept apart here.

Experiments:
[1] = system: KCNQ3*[Trp265TAG] rescued with F3-Trp; experiment: Two-electrode voltage clamp of F3-Trp-rescued KCNQ3*[Trp265TAG] channels (nonsense suppression); format: cell-based, human; conditions: for drug potency relative to Trp-rescued channels: F3-Trp substitution at Trp265
Description: (§1) KCNQ2 (human) and KCNQ3 (human) channel cDNAs were propagated and manipulated using the pTLN vector (gifts of Dr M. Taglialatela and Dr T. Jentsch). Introduction of point mutations was accomplished using PCR to combine two fragments each of which contained the mutation in an overlapping region of the sequence (‘two-step’ PCR method). To accomplish this, we used standard PCR approaches to amplify a 5′ fragment and a 3′ fragment (using a ‘flanking primer’ paired with a mutagenic primer). These fragments were then mixed along with the ‘flanking primer’ pair for a second round of PCR to combine the overlapping fragments. The resulting fragment was then subcloned into the appropriate parent vector using EcoRI and NotI restriction enzymes, and the sequence was verified by Sanger sequencing approaches (Genewiz). Sequences for the flanking primers and the ‘forward’ mutagenic primers are provided in Supplementary Table 1 for all mutations that were generated (‘reverse’ mutagenic primers are simply the reverse complement). In all experiments involving homomeric expression of KCNQ3 channels (including in vivo nonsense suppression experiments), the Ala315Thr mutation was introduced to enable efficient trafficking of homomeric KCNQ3. […] The plasmid encoding CivSP was kindly provided by Dr Y. Okamura. Complementary RNA was transcribed from the cDNA using the mMessage mMachine Kit (Ambion). Stage V–VI Xenopus laevis oocytes were prepared as previously described and were injected with cRNA alone or cRNA plus synthetic tRNA (for nonsense suppression, described below). Oocyte preparation was carried out using a protocol approved by the University of British Columbia Animal Care Committee, in accordance with the Canadian Council for Animal Care guidelines. We used female Xenopus laevis frogs 100 g or greater in size. After injection, oocytes were incubated for 12–48 h at 18 °C before recording.
Fluorinated Trp derivatives (5-F1-Trp; 7-F1-Trp; 5,7-F2-Trp (F2-Trp) and 5,6,7-F3-Trp (F3-Trp) were purchased from Asis Chem (Watertown, MA) and Sigma-Aldrich (St Louis, MO). The ‘Ind’ Trp variant was synthesized in-house as described previously. Incorporation of unnatural amino acids into ion channel proteins was carried out as described extensively in prior publications. Briefly, unnatural amino acids (aa) were protected with nitroveratryloxycarbonyl and were activated as the cyanomethyl ester, which were then coupled to the dinucleotide pdCpA (GE Healthcare/Dharmacon, Lafayette, CO). This aminoacyl dinucleotide was subsequently ligated to a modified (G73) Tetrahymena thermophile tRNA. […]
(§2) Voltage-clamped potassium currents were recorded in standard Ringers solution (in mM): 116 NaCl, 2 KCl, 1 MgCl2, 0.5 CaCl2, 5 HEPES (pH 7.4) using an OC-725C voltage clamp (Warner, Hamden, CT). […]

[2] = molecular target: T1, KCNQ3* (KCNQ3[Ala315Thr]) (Homo sapiens, UniProt O43525, A315T); experiment: Two-electrode voltage clamp of homomeric KCNQ3* channels in Xenopus oocytes; format: cell-based
T1 sequence (O43525 1-872 A315T): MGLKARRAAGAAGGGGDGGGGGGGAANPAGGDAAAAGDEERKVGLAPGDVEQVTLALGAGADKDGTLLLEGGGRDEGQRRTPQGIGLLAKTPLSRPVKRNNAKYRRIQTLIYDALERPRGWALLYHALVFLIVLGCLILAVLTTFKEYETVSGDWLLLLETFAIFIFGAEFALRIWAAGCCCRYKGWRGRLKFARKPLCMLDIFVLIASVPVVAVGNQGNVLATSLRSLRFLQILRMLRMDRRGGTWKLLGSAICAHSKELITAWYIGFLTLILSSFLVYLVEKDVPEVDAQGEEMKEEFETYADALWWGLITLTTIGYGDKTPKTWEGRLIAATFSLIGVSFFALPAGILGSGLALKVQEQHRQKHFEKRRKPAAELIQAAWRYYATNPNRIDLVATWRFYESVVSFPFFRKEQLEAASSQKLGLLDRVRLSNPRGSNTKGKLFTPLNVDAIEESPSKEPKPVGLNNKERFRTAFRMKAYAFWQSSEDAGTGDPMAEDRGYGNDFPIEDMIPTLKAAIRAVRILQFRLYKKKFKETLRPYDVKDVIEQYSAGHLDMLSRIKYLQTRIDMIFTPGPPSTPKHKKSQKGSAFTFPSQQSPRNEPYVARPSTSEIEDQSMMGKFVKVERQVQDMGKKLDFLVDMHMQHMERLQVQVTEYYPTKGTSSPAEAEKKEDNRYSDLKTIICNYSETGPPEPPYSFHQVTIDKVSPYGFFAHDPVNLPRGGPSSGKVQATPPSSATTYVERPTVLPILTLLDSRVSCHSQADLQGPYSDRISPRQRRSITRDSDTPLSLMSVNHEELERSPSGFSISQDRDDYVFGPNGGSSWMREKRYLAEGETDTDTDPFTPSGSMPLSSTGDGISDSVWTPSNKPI
Description: as §1
Voltage-clamped potassium currents were recorded in standard Ringers solution (in mM): 116 NaCl, 2 KCl, 1 MgCl2, 0.5 CaCl2, 5 HEPES (pH 7.4) using an OC-725C voltage clamp (Warner, Hamden, CT). Glass microelectrodes were backfilled with 3 M KCl and had resistances of 0.1–1 MΩ. Data were filtered at 5 kHz and digitized at 10 kHz using a Digidata 1440A (Molecular Devices) controlled by the pClamp 10 software (Molecular Devices). Drugs were purchased from Toronto Research Chemicals (retigabine) or Tocris (ML-213, flupirtine, ICA-069673, ICA-110381), stored as 100 mM stocks in dimethylsulphoxide and diluted to working concentrations each experimental day.

KCNQ3*[Trp265Ind] = experiment: Two-electrode voltage clamp of Ind-rescued KCNQ3*[Trp265TAG] channels (nonsense suppression); format: cell-based, human; conditions: Ind at position 265; up to 100 μM retigabine
Description: (§3) KCNQ2 (human) and KCNQ3 (human) channel cDNAs were propagated and manipulated using the pTLN vector (gifts of Dr M. Taglialatela and Dr T. Jentsch). Introduction of point mutations was accomplished using PCR to combine two fragments each of which contained the mutation in an overlapping region of the sequence (‘two-step’ PCR method). To accomplish this, we used standard PCR approaches to amplify a 5′ fragment and a 3′ fragment (using a ‘flanking primer’ paired with a mutagenic primer). These fragments were then mixed along with the ‘flanking primer’ pair for a second round of PCR to combine the overlapping fragments. The resulting fragment was then subcloned into the appropriate parent vector using EcoRI and NotI restriction enzymes, and the sequence was verified by Sanger sequencing approaches (Genewiz). Sequences for the flanking primers and the ‘forward’ mutagenic primers are provided in Supplementary Table 1 for all mutations that were generated (‘reverse’ mutagenic primers are simply the reverse complement). […]
as §2

KCNQ2/3 heteromers = molecular target: T2, KCNQ2/3 heteromers (Homo sapiens, UniProt O43525+O43526); experiment: Two-electrode voltage clamp of heteromeric KCNQ2/3 channels in Xenopus oocytes; format: cell-based; conditions: 1:1 injected mRNA
T2 construct: expressed in transfected cells; host or cells: Xenopus laevis oocytes co-injected with KCNQ2 and KCNQ3 mRNA (1:1)
T2 sequence (O43526 whole entry): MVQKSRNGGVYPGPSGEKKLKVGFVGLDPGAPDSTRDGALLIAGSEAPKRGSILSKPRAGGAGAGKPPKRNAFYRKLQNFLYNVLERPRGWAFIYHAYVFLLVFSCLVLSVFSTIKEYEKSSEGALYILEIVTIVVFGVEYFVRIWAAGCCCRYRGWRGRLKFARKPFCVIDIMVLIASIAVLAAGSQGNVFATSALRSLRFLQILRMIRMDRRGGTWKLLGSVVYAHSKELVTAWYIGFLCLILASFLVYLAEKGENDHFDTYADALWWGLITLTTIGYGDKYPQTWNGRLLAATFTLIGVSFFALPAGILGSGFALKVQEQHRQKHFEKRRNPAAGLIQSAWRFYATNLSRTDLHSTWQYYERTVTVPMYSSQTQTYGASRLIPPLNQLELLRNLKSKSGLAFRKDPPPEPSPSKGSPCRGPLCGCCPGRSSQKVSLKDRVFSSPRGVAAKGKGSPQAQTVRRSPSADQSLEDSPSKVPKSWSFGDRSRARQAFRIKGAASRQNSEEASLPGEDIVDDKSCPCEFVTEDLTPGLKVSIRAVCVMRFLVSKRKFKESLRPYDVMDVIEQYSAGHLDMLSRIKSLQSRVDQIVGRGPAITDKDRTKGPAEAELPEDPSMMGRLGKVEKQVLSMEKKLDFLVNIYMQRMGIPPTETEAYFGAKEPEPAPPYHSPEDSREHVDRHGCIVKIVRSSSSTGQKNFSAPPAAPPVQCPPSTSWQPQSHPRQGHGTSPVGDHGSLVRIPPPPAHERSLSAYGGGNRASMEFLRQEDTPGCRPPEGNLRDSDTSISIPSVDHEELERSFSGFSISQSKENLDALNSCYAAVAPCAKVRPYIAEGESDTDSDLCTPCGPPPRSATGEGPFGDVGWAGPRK
T2 sequence (O43525 whole entry): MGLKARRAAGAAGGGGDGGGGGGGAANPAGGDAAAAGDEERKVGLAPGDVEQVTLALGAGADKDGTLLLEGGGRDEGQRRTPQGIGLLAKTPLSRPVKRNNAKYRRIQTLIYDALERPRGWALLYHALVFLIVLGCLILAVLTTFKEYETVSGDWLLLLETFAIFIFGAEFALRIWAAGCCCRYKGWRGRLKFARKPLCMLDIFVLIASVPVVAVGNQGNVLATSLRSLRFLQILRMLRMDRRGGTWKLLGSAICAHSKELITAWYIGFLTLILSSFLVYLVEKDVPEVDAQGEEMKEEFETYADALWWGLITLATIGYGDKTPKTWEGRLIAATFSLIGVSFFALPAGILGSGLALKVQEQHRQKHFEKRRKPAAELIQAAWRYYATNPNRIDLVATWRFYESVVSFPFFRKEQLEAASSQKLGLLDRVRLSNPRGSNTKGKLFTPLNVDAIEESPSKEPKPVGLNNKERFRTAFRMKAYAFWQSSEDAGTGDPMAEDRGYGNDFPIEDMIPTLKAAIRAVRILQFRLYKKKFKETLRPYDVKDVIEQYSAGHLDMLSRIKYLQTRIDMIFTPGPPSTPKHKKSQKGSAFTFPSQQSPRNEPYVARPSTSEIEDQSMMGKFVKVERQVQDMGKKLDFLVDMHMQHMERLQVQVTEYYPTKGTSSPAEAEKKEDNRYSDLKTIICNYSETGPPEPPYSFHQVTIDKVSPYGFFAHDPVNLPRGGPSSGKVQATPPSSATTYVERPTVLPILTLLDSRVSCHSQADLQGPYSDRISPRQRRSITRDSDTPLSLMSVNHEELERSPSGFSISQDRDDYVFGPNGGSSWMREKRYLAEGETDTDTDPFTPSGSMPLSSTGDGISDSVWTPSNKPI
Description: as §3, §2

[3] = system: KCNQ3* mutants at Thr271, Leu272, Leu314 and Leu338; experiment: Two-electrode voltage clamp of KCNQ3* mutants at Thr271, Leu272, Leu314, Leu338; format: cell-based, human; conditions: functional mutants, up to 300 μM retigabine
Description: as §3, §2

KCNQ1 = KCNQ1 lacks the S5 Trp; cited from earlier work
[4] = molecular target: T3, KCNQ3*[Trp265TAG] rescued with Trp (Homo sapiens, UniProt O43525, A315T); experiment: Two-electrode voltage clamp of Trp-rescued KCNQ3*[Trp265TAG] channels (nonsense suppression); format: cell-based; conditions: 1 μM retigabine
T3 construct: expressed in transfected cells; host or cells: Xenopus laevis oocytes co-injected with KCNQ3*[Trp265TAG] cRNA and Trp-acylated suppressor tRNA
T3 sequence (O43525 1-872 A315T): T1 sequence (O43525 1-872 A315T)
Description: as §3, §2

KCNQ2 = KCNQ2 (Homo sapiens, UniProt O43526); experiment: Two-electrode voltage clamp of homomeric KCNQ2 channels in Xenopus oocytes; format: cell-based; conditions: 100 μM retigabine (Fig. 1)
Sequence of KCNQ2 (O43526 whole entry): as the sequence (O43526 whole entry) above
Description: as §3, §2

KCNQ3*[Asn220Cys] = molecular target: T4, KCNQ3*[Asn220Cys] (Homo sapiens, UniProt O43525, A315T/N220C); experiment: Two-electrode voltage clamp of KCNQ3*[Asn220Cys] channels in Xenopus oocytes; format: cell-based; conditions: 1 μM retigabine, Asn220Cys mutant
T4 sequence (O43525 1-872 N220C/A315T): T1 sequence (O43525 1-872 A315T) with N220C
Description: as §3, §2

O=C(Nc1ccc(Cl)nc1)c1ccc(Cl)cc1 [ICA-110381]
drug potency relative to Trp-rescued channels [1]: not as pronounced | activation relative to Trp channels ([1]; F3-Trp-substituted channels): considerably more activation

O=C(Nc1cnc(Cl)nc1)c1ccc(F)c(F)c1 [ICA-069673]
drug potency relative to Trp-rescued channels [1]: not as pronounced

Cc1cc(C)c(NC(=O)C2CC3CCC2C3)c(C)c1 (stereo not shown) [ML-213]
EC50 ([2]; KCNQ3* channels, n=5, ± s.e., read-out: EC50 for shift of activation V1/2): 3.6 ± 0.2 µM

CCOC(=O)Nc1ccc(NCc2ccc(F)cc2)cc1N [retigabine]
activation of channels (gating shift, activation kinetics) (KCNQ3*[Trp265Ind]): entirely abolishes retigabine activation | retigabine-mediated gating shift (KCNQ2/3 heteromers): ~−40 mV | shift in the voltage dependence of activation ([1]; 1 μM retigabine, F3-Trp at Trp265): much larger response | EC50 [2]: 11.6 ± 0.4 µM | increase in peak current ([2]; KCNQ3* channels, rarely greater than): ≤ 15% | hyperpolarizing shift of the V1/2 of activation ([2]; homomeric KCNQ3*, Xenopus oocytes, 100 μM retigabine (Fig. 1)): 40–60 mV | stabilization of channel opening, ΔG=Δ(zFV1/2) ([2]; saturating retigabine, calculated from shift of conductance–voltage relationship): ~6 kcal/mol | retigabine-mediated gating shift [3]: retained a large retigabine-mediated gating shift | hyperpolarizing shift of V1/2 of activation (KCNQ1): absent | shift in the voltage dependence of activation [4]: very little shift | hyperpolarizing shift of the V1/2 of activation (KCNQ2): 40–60 mV | gating shift / sensitization to retigabine (KCNQ3*[Asn220Cys]): unable to generate a marked gating shift
